Results published in patent US6537800B1, “Apparatus for automatically measuring minute membrane potential” (Center for Advanced Science and Technology Incubation, Ltd., priority 1998, dated 2003).

Assays:
[1] = Water solubility; assay type: physicochemical
Excerpt: A thiophen oligomer having an aminomethyl group at a terminal thereof has a higher water solubility than any other derivative of the same kind due to this terminal aminomethyl group. The water solubility varies depending on how the aminomethyl group is released. […] By irrigating the cell with the BAT-dispersed solution under the above pH condition, this molecule can be easily added to a surface of the cell. The hydrophilic property of the BAT molecule is new and is absent from the other modified thiophen oligomers including an a terthienyl derivative as well as other molecules designed as conductive high-molecular monomers.

[2] = test system: PC12 cells; assay: Microinjection success rate (Lucifer Yellow injection) using photosensitized membrane destruction; assay type: cell-based, rat; settings: BAT-containing injection liquid, no light applied, capillary kept in contact with cell, n=30
Protocol: To determine whether the microinjection process was successful, the water-soluble fluorescent pigment Lucifer Yellow CH (LY)was added to an injection liquid. […] Evaluation was made to determine how the success rate of injection of the LY into the cell varied depending on the presence of the photosesirizer BAT in the injection liquid or the presence of application of the BAT exciting light.
To make the microinjection successful, a glass capillary having a diameter of several hundred nanometers at a tip opening thereof must be brought into contact with the cell at a high speed to physically instantaneously penetrate and punch the cell membrane. In the experiments, an electric micromanipulator (manufactured by Eppendorf; Micromanipulator 5171) and an electric injector (manufactured by Eppendorf; Transjector 5246), which can both operate under the control of a program, could be used to set a speed at which the capillary contacted with the membrane, at an arbitrary value. In addition, the injection capillary was a commercially available product (manufactured by Eppendorf; FemtoTips) mass-produced for the above apparatuses. […]

[3] = test system: PC12 cells; assay: Membrane resistance and membrane potential after light irradiation (patch clamp); assay type: cell-based, rat
Protocol: Since minute membrane defects must be monitored at a cell level for a period of time in the order of seconds to several minutes including a recovery process, the patch clamp method, which is used for electrophysiological experiments, was used to measure the potential between the cell membranes or ion current transmitted through the cell membrane.
The photosensitizer BAT was dispersed in a HEPES (25 mM, pH 7.4) buffer.
The cells were incubated in a culture medium for electrophysiological experiments at roam temperature. The culture medium used for this experiment was composed of 124 mM of NaCl, 5 mM of KCl, 2.4 mM of CaCl2.2H2O, 1.3 mM of MgSO4.7H2O, and 10 mM of glucose, with a final pH adjusted to 7.4 by addition of NaOH. To prevent the averse effects of evaporation, the culture medium for electrophysiological experiments was replaced with a new at the intervals of 40 minutes at maximum.
The BAT was added so as to have a final Concentration of 49 μM. The quantity of light applied was set at three levels: 0.47 J/cm^2, 0.94 J/cm^2, and 1.57 J/cm^2.
A liquid in the patch electrode was composed of 132 mM of KCl, 8 mM of NaCl, 2 mM of MgCl2, 30 mM of HEPES, 4 mM of Na2ATP, 0.3 mM of GTP, and 0.5 mM of EGTA, with a final pH adjusted to 7.3 by addition of NaOH.
Since a zoom function allows light to be concentrated in an area smaller than a normal area, the amount of light per unit area increases in proportion to the square of a zoom magnification. The excitation light is transmitted through the plastic of the collagen coat dish before actually reaching the cell, so that a decrease in light quantity must actually be taken into consideration.
In irradiating the cell with the excitation light, a TTL signal operating in connection with an electrophysiological record is transmitted to the light source as required to synchronize the light irradiation with electric measurements.
Before starting the electrophysiological experiments, the cell membrane potential had been maintained between −80 and −60 mV.
The cell membrane potential measuring amplifier was Axpopatch 1-D (Axon Instruments). The membrane resistance was calculated from a change in membrane potential occurring when a 1-Hz rectangular-wave overpolarization current flowed through the membrane for 350 milliseconds. The amount of, current supplied (0.1 or 0.15 nA) was selected so that the change in membrane potential would not exceed 30 mV when power was supplied. Under these experimental conditions, the PC12 cell generated no action potential. Measured potential and current values were analyzed using Axoscope ver. 1.1 (manufactured by Axon Instruments).
In FIG. 9, the axis of abscissa indicates an elapsed time (unit: second). The axis of ordinate indicates the resistance of the cell membrane (unit: %) in the upper part and the potential thereof in the lower part, both values being normalized by setting corresponding values prior to irradiation equal to […]. The membrane resistance reflects the ion transmission inhibiting capability, and the membrane potential reflects the active ion transporting capability of the membrane effected by activities of various intermembrane ion transporting systems as well as the ion transmission inhibiting capability.
A microinjection device was connected to a minute glass pipette held in a micromanipulator, and the minute glass pipette was filled with a solution with the photosensitizer BAT dispersed therein (BAT concentration: 2 mM, water solvent). The glass pipette was located in such a manner that its tip was connected to the patch electrode and located within 200 μm from a cell for which the membrane potential and resistance were to be measured.

[4] = test system: PC12 cells; assay: Cell survival rate after injection process (LY retaining rate); assay type: cell-based, rat
Protocol: A cell survival rate after the injection process was compared between cells subjected to the normal microinjection process using the physical shearing force and cells subjected to the photosensitizing microinjection.
The LY was injected into the cell by means of microinjection. In a dead cell with its cell membrane collapsed, the LY disperses quickly to lose its color [Cell, 14, 741-759 (1987)]. Thus, using a rate at which the cell subjected to the injection process holds the LY, as an index indicating the cell survival rate, the survival rates 3 and 6 days after the injection process were compared to each other.
In FIG. 13, the axis of abscissa indicates the number of days passing after the injection process (unit: day), while the axis of ordinate indicates the survival rate (units %).

[5] = B: 4.94 J/cm^2 light, BAT 49 μM, several seconds after irradiation

## Cl.Cl.NCc1ccc(-c2ccc(-c3ccc(CN)s3)s2)s1 [BAT, 5′5″-bis(aminomethyl)-2,2′:5′2″-terthiophene dihydrochloride]
[1]; acid water solution (bivalent positive charge)
  water solubility: easily soluble
[1]; water solution with biologically suitable pH range (near 7.4), univalent positive charge type
  water solubility: maintains a high water solubility
[2]
  injection success rate: 13%
[3]; A: 0.47 J/cm^2 light, BAT 49 μM, 363-nm argon ion laser
  cell membrane resistance and membrane potential after light irradiation: varied slightly but not significantly
[3]; [5]
  cell membrane resistance after light irradiation: decreased
  membrane potential after light irradiation: depolarized
[3]; BAT 2 mM dispersed solution ejected from minute glass pipette onto target cell, laser as in Example 3
  cell membrane potential after laser beam: depolarized
[3]; C: 1.57 J/cm^2 light, BAT 49 μM
  time after light irradiation to loss of membrane resistance and potential: about 8 seconds
[3]; C: 1.57 J/cm^2 light, BAT 49 μM, then remained at fixed values (irreversible)
  cell membrane resistance and membrane potential after light irradiation: lost
[4]; photosensitizing injection (BAT + light), three to six days after injection
  cell survival rate (LY retention): about 90%

## NNC(=O)NN1C(=O)c2cc(S(=O)(=O)O)cc3c(N)c(S(=O)(=O)O)cc(c23)C1=O [LY, Lucifer Yellow CH, reference compound]
[4]; control examples: normal injection, 3 days after the injection
  survival rate: 17%
